The nature of data set [1]: Fraction unbound in vitro (equilibrium dialysis). Format: in vitro ADME. The method, then:
Example 7, 2-(2-chloro-6-fluoro-phenyl)-1-[(1S,3R)-6-fluoro-3-(hydroxymethyl)-5-(3-hydroxy-3-methyl-butyl)-1-methyl-3,4-dihydro-1H-isoquinolin-2-yl]ethenone, was orally dosed to male mouse from 3 mg/kg to 60 mg/kg in fed condition, and the plasma and brain concentration was determined 1 hr post-dose. The fraction unbound of the compound was determined in vitro as described previously (Zamek-Gliszczynski M J, et al., Validation of 96-well equilibrium dialysis with non-radiolabeled drug for definitive measurement of protein binding and application to clinical development of highly-bound drugs, J. Pharm. Sci. (2011) 100: 2498-2507). The ratio (Kpuu) of unbound brain concentration (Cu, brain) vs. unbound plasma concertation (Cu, plasma) was determined as described previously (Raub T J, et al., Brain Exposure of Two Selective Dual CDK4 and CDK6 Inhibitors and the Antitumor Activity of CDK4 and CDK6 Inhibition in Combination with Temozolomide in an Intracranial Glioblastoma Xenograft. Drug Metab. Dispos. (2015) 43:1360-71). The data presented below in Table 3 for Example 7 are averages from 3 animals at each dose. “Con.” refers to concentration.
In general terms: In equilibrium dialysis free small molecules cross a membrane that holds back macromolecules.

A further data set deals with Cytochrome P450 (CYP). In words: Fraction of CYP-mediated oxidative metabolism (fmCYP) in human hepatocytes with/without ABT. Type of data set: in vitro ADME. The procedure:
The relative contribution of P450 s in the overall metabolism of a compound was determined from the clearance of the drug in an assay using human hepatocytes in the presence and absence of the pan P450 inhibitor 1-aminobenzotriazole (ABT). The intrinsic clearance was determined in cryopreserved human hepatocytes essentially as described in McGinnity D F, et al. (2004) Evaluation of fresh and cryopreserved hepatocytes as in vitro drug metabolism tools for the prediction of metabolic clearance. Drug Metab Dispos 32:1247-1253. Generally, the assay incubations contain 0.3 μM test compound and 10^6 cells/mL hepatocytes, with or without 0.5 hr. pre-incubation with ABT (1 mM). Parent compound loss is measured by LC/MS after 15, 30, 60 and 90 min. incubation. The intrinsic clearance (μL/min/10^6 cells) is calculated using the following equation for both ±ABT. The fraction of metabolism by CYP is the percentage of inhibition by ABT.
CLint=−kdep×incubation volume/10^6 cells,
in which the kdep, the substrate depletion constant (min^−1), is the slope determined using linear regression from the log transformed % remaining on the y-axis vs time on the x-axis (min^−1).

Like-named read-outs stand apart in the source and are kept apart here.

Consider `C[C@H]1c2ccc(F)c(CCC(C)(C)O)c2C[C@H](CO)N1C(=O)Cc1c(F)cccc1Cl` [Example 7, 2-(2-chloro-6-fluoro-phenyl)-1-[(1S,3R)-6-fluoro-3-(hydroxymethyl)-5-(3-hydroxy-3-methyl-butyl)-1-methyl-3,4-dihydro-1H-isoquinolin-2-yl]ethanone], for which the fraction unbound in data set [1] (fraction unbound in brain, read-out: fu, brain) worked out at 0.0249; in data set [1] (fraction unbound in plasma, read-out: fu, plasma), 0.0141. Moreover, in the data set on Cytochrome P450 (CYP), the “route of metabolism in hepatocytes” value is given as “primarily metabolized through non-oxidative processes”. This compound registered a fmCYP in the data set with Cytochrome P450 (CYP) (CLint ±ABT (1 mM), 0.3 μM compound) of 0.322. For the same compound, the “fractions metabolized by CYPs” value in the data set on Cytochrome P450 (CYP) (±ABT) is listed as 32.3%.

Values taken from US20230382869A1, “Phenyl-3,4-dihydroisoquinolin-2(1h)-yl-ethan-1-one derivatives as dopamine d1receptor positive allosteric modulators” (Eli Lilly and Company, priority 2020, published 2023).
